How the values were obtained:
[1] = biological target: Sodium-dependent noradrenaline transporter (Homo sapiens, UniProt P23975); experiment: DRUGMATRIX: Norepinephrine Transporter radioligand binding (ligand: [125I] RTI-55); format: cell membranes, MDCK, Membrane; details: Not Active = under 50% inhibition at 10 µM
[2] = biological target: Aldo-keto reductase family 1 member B1 (Rattus norvegicus, UniProt P07943); experiment: biochemical; format: tissue-based, Lens of camera-type eye;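 also: inhibition of aldose reductase enzyme activity, measured with DL-glyceraldehyde as the substrate; in other assays of this panel Not Active means under 50% inhibition at 10 µM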
[3] = biological target: T1, Muscarinic acetylcholine receptor M2 (Homo sapiens, UniProt P08172); format: cell membranes, CHO-K1, Membrane; also: in other assays of this panel Not Active means under 50% inhibition at 10 µM
T1 sequence (P08172 whole entry): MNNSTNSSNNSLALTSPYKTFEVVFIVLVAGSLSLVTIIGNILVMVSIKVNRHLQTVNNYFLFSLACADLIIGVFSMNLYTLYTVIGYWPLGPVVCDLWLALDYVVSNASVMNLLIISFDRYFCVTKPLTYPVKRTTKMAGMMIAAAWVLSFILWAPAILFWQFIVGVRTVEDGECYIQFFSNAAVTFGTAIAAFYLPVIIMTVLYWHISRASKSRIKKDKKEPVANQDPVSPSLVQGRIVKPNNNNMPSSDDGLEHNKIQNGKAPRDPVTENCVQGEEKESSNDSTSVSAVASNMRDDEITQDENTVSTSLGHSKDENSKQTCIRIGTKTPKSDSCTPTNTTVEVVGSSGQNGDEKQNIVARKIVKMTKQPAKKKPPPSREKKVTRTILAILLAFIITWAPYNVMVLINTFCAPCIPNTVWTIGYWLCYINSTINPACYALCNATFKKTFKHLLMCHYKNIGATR

[4] = biological target: Tyrosine-protein kinase Lck (Homo sapiens, UniProt P06239); experiment: DRUGMATRIX: Protein Tyrosine Kinase, LCK enzyme inhibition (substrate: Poly(Glu:Tyr)); format: cell-based, Insect cells; details: Not Active = under 50% inhibition at 10 µM
Estrogen receptor beta = Estrogen receptor beta (Homo sapiens, UniProt Q92731); details: sf9; also: in other assays of this panel Not Active means under 50% inhibition at 10 µM
Mu-type opioid receptor = Mu-type opioid receptor (Homo sapiens, UniProt P35372); experiment: DRUGMATRIX: Opiate mu (OP3, MOP) radioligand binding (ligand: [3H] Diprenorphine); format: cell membranes, CHO-K1, Membrane; details: Not Active = under 50% inhibition at 10 µM
Chain of Mu-type opioid receptor (P35372 whole entry): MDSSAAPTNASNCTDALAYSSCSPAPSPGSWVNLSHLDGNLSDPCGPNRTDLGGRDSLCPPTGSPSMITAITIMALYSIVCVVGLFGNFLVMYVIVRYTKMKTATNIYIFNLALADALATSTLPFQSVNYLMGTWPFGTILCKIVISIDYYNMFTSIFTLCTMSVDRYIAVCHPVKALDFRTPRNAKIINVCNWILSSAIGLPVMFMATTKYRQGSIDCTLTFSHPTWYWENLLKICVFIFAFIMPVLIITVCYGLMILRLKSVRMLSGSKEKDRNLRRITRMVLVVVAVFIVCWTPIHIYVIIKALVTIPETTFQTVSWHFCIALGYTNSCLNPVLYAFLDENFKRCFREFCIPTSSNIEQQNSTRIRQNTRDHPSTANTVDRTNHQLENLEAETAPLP

Chain of Estrogen receptor beta (Q92731 whole entry): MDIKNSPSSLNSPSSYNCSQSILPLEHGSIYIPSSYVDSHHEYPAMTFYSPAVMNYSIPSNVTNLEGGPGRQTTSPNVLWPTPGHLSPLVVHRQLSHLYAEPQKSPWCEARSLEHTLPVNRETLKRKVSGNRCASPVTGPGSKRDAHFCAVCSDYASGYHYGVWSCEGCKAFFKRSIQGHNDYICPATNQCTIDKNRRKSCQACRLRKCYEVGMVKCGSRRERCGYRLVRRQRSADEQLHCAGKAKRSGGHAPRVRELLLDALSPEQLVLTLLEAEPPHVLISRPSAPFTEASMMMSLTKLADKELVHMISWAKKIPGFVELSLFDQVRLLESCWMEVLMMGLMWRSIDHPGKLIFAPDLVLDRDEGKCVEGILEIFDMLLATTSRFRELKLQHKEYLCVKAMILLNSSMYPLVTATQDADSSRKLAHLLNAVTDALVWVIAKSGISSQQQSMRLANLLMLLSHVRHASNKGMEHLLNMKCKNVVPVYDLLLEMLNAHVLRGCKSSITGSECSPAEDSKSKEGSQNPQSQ
Chain of Tyrosine-protein kinase Lck (P06239 whole entry): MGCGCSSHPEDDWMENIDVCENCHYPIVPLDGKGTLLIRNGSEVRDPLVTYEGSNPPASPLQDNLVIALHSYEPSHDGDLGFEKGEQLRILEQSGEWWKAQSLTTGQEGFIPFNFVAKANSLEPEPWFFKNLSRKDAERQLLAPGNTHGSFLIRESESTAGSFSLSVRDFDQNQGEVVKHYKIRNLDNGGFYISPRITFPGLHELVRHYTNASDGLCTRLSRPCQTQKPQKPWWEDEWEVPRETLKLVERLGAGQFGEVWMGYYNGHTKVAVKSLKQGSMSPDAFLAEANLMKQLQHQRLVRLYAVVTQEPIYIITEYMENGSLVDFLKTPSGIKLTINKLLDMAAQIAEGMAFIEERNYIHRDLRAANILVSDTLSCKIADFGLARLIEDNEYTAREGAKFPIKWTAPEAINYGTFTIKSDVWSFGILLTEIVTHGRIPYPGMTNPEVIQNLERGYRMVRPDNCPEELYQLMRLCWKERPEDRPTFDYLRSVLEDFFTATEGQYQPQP
Chain of Sodium-dependent noradrenaline transporter (P23975 whole entry): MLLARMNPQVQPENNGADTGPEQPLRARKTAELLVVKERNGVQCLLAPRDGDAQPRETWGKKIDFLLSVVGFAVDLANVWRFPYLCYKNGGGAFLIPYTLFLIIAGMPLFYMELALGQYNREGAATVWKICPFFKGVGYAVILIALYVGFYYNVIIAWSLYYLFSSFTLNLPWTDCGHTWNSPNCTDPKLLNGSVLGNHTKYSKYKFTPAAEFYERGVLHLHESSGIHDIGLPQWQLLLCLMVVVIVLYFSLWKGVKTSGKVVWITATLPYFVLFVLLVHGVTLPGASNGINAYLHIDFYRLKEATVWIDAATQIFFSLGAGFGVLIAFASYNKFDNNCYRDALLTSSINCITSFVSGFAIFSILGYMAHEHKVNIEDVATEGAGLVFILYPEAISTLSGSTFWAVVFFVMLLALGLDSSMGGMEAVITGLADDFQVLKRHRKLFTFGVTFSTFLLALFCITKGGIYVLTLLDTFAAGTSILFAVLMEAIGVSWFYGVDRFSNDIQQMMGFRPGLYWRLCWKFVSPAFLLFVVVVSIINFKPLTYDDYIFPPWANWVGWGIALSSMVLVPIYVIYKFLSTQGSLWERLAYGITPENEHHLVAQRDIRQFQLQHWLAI

Compound | IC50 ([1]; mdck) | IC50 [2] | IC50 ([3]; cho-k1) | IC50 ([4]; insect cells) | IC50 (Estrogen receptor beta) | IC50 (Mu-type opioid receptor; cho-k1) | also measured
CC(C)(C)NC(=O)[C@@H]1C[C@@H]2CCCC[C@@H]2CN1C[C@@H](O)[C@H](Cc1ccccc1)NC(=O)[C@H](CC(N)=O)NC(=O)c1ccc2ccccc2n1 | Not Active | Not Active | Not Active | Not Active | Not Active |  | 
CC(=O)[C@@]1(O)CC[C@H]2[C@@H]3C[C@H](C)C4=CC(=O)CC[C@]4(C)[C@H]3CC[C@@]21C | Not Active | Not Active | Not Active | Not Active | Not Active | Not Active | 
N[C@@H](Cc1ccc(N(CCCl)CCCl)cc1)C(=O)O | Not Active | Not Active | Not Active | Not Active | Not Active |  | 
CCCCc1oc2ccccc2c1C(=O)c1cc(I)c(OCCN(CC)CC)c(I)c1 [AMIODARONE] |  | Not Active |  | Not Active | Not Active |  | 
OCCN(CCO)c1nc(N2CCCCC2)c2nc(N(CCO)CCO)nc(N3CCCCC3)c2n1 [DIPYRIDAMOLE] | Not Active | Not Active | Not Active | Not Active | Not Active | Not Active | 
Cc1oncc1C(=O)Nc1ccc(C(F)(F)F)cc1 [LEFLUNOMIDE] |  | Not Active | Not Active | Not Active | Not Active | Not Active | 
c1ccc([C@H]2CN3CCSC3=N2)cc1 [LEVAMISOLE] | Not Active | Not Active | Not Active | Not Active | Not Active | Not Active | 
N[C@@H](Cc1ccc(O)c(O)c1)C(=O)O [LEVODOPA] | Not Active | Not Active | Not Active |  | Not Active | Not Active | IC50 ([4]; read-out: IC50): 3.73 µM
N[C@@H](Cc1cc(I)c(Oc2ccc(O)c(I)c2)c(I)c1)C(=O)O [LIOTHYRONINE] | Not Active | Not Active | Not Active | Not Active |  | Not Active | 
O=NN(CCCl)C(=O)NC1CCCCC1 [LOMUSTINE] | Not Active | Not Active | Not Active | Not Active | Not Active | Not Active | 
CCOC(=O)N1CCC(=C2c3ccc(Cl)cc3CCc3cccnc32)CC1 [LORATADINE] | Not Active | Not Active | Not Active | Not Active | Not Active | Not Active | 
Cn1ccnc1S [METHIMAZOLE] | Not Active | Not Active | Not Active | Not Active | Not Active | Not Active | 
CC[C@@H](CO)NC(=O)[C@@H]1C=C2c3cccc4[nH]cc(c34)C[C@H]2N(C)C1 [METHYLERGONOVINE] | Not Active | Not Active | Not Active | Not Active | Not Active |  | 
COc1nc(C)nc(Cl)c1NC1=NCCN1 [MOXONIDINE] | Not Active | Not Active | Not Active | Not Active | Not Active | Not Active | 
COc1c(C)c2c(c(O)c1C/C=C(\C)CCC(=O)O)C(=O)OC2 [MYCOPHENOLIC ACID] | Not Active | Not Active | Not Active | Not Active | Not Active | Not Active | 
O=c1ncn2nc(Sc3ccc(F)cc3F)ccc2c1-c1c(Cl)cccc1Cl [NEFLAMAPIMOD] |  | Not Active | Not Active | Not Active | Not Active | Not Active | IC50 ([1]; read-out: IC50): 20.4 µM; Ki ([1]; read-out: Ki): 20.2 µM
CN1CCN(CCCN2c3ccccc3Sc3ccc(Cl)cc32)CC1 [PROCHLORPERAZINE] |  | Not Active |  | Not Active | Not Active | Not Active | 
CO[C@H]1/C=C/O[C@@]2(C)Oc3c(C)c(O)c4c(O)c(c(/C=N/N5CCN(C)CC5)c(O)c4c3C2=O)NC(=O)/C(C)=C\C=C\[C@H](C)[C@H](O)[C@@H](C)[C@@H](O)[C@@H](C)[C@H](OC(C)=O)[C@@H]1C [RIFAMPIN] | Not Active | Not Active | Not Active | Not Active | Not Active | Not Active | 
Nc1nc2ccc(OC(F)(F)F)cc2s1 [RILUZOLE] |  | Not Active | Not Active | Not Active | Not Active | Not Active | IC50 ([1]; read-out: IC50): 1.73 µM; Ki ([1]; read-out: Ki): 1.72 µM

Compound | IC50 ([1]; mdck) | IC50 [2] | IC50 ([3]; cho-k1) | IC50 ([4]; insect cells) | IC50 (Estrogen receptor beta) | IC50 (Mu-type opioid receptor; cho-k1) | also measured
Cc1nc2n(c(=O)c1CCN1CCC(c3noc4cc(F)ccc34)CC1)CCCC2 [RISPERIDONE] | Not Active | Not Active | Not Active | Not Active |  | Not Active | 
C=CCC1(C(C)CCC)C(=O)NC(=O)NC1=O (configuration not stated) [SECOBARBITAL] | Not Active | Not Active | Not Active | Not Active | Not Active | Not Active | 
C[C@@H]1CN(c2c(F)c(N)c3c(=O)c(C(=O)O)cn(C4CC4)c3c2F)C[C@H](C)N1 [SPARFLOXACIN] | Not Active | Not Active | Not Active | Not Active | Not Active | Not Active | 
Cc1noc(NS(=O)(=O)c2ccc(N)cc2)c1C [SULFISOXAZOLE] | Not Active | Not Active | Not Active | Not Active | Not Active | Not Active | 
CSc1ccc(/C=C2/C(C)=C(CC(=O)O)c3cc(F)ccc32)cc1 [SULINDAC SULFIDE] | Not Active |  | Not Active | Not Active | Not Active |  | IC50 ([2]; read-out: IC50): 0.084 µM; Ki (Mu-type opioid receptor): 13.7 µM; IC50 (Mu-type opioid receptor; read-out: IC50): 33.7 µM
Nc1c2c(nc3ccccc13)CCCC2 [TACRINE] |  | Not Active | Not Active | Not Active | Not Active | Not Active | IC50 ([1]; read-out: IC50): 0.517 µM; Ki ([1]; read-out: Ki): 0.513 µM
CC/C(=C(\c1ccccc1)c1ccc(OCCN(C)C)cc1)c1ccccc1 [TAMOXIFEN] |  | Not Active |  |  |  |  | IC50 ([1]; read-out: IC50): 1.47 µM; Ki ([1]; read-out: Ki): 1.46 µM; Ki (Mu-type opioid receptor): 7.14 µM; IC50 (Mu-type opioid receptor; read-out: IC50): 17.6 µM; IC50 ([4]; read-out: IC50): 8.03 µM
CC(C)N1CCN(c2ccc(OCC3COC(Cn4cncn4)(c4ccc(Cl)cc4Cl)O3)cc2)CC1 (configuration not stated) [TERCONAZOLE] |  | Not Active |  | Not Active | Not Active | Not Active | IC50 ([3]; read-out: IC50): 12.9 µM; Ki ([3]; read-out: Ki): 4.59 µM
Nc1nc2nc[nH]c2c(=S)[nH]1 [THIOGUANINE] | Not Active | Not Active | Not Active | Not Active | Not Active | Not Active | 
Cc1cccc(N(C)C(=S)Oc2ccc3ccccc3c2)c1 [TOLNAFTATE] | Not Active | Not Active | Not Active | Not Active | Not Active | Not Active | 
NC[C@H]1CC[C@H](C(=O)O)CC1 [TRANEXAMIC ACID] | Not Active | Not Active | Not Active | Not Active | Not Active | Not Active | 
CC1(C)O[C@@H]2C[C@H]3[C@@H]4CCC5=CC(=O)C=C[C@]5(C)[C@@]4(F)[C@@H](O)C[C@]3(C)[C@]2(C(=O)CO)O1 [TRIAMCINOLONE ACETONIDE] | Not Active | Not Active | Not Active | Not Active | Not Active | Not Active | 
NS(=O)(=O)c1cc2c(cc1Cl)NC(C(Cl)Cl)NS2(=O)=O (configuration not stated) [TRICHLORMETHIAZIDE] | Not Active | Not Active | Not Active | Not Active | Not Active | Not Active | 
Cc1c(C)c2c(c(C)c1O)CCC(C)(COc1ccc(CC3SC(=O)NC3=O)cc1)O2 (configuration not stated) [TROGLITAZONE] | Not Active |  | Not Active | Not Active | Not Active | Not Active | IC50 ([2]; read-out: IC50): 2.04 µM
N[C@@H]1[C@H]2CN(c3nc4c(cc3F)c(=O)c(C(=O)O)cn4-c3ccc(F)cc3F)C[C@@H]12 [TROVAFLOXACIN] | Not Active | Not Active | Not Active |  | Not Active | Not Active | 
N#CC(C#N)=Cc1ccc(O)c(O)c1 [TYRPHOSTIN 23] | Not Active |  | Not Active | Not Active | Not Active | Not Active | IC50 ([2]; read-out: IC50): 0.202 µM
CC[C@]1(O)C[C@H]2CN(CCc3c([nH]c4ccccc34)[C@@](C(=O)OC)(c3cc4c(cc3OC)N(C=O)[C@H]3[C@@](O)(C(=O)OC)[C@H](OC(C)=O)[C@]5(CC)C=CCN6CC[C@]43[C@@H]65)C2)C1 [VINCRISTINE] | Not Active | Not Active | Not Active | Not Active |  | Not Active | 
SODIUM NITROPRUSSIDE | Not Active | Not Active | Not Active | Not Active | Not Active |  | Ki ([1]; mdck): Not Active; Ki [2]: Not Active; Ki ([3]; cho-k1): Not Active; Ki ([4]; insect cells): Not Active; Ki (Estrogen receptor beta): Not Active
